Experimental findings from patent publication US10851098B2, “Azole amides and amines as alpha v integrin inhibitors” (BRISTOL-MYERS SQUIBB COMPANY, priority 2016, dated 2020) are described below.

This test deals with T1, human αVβ6 (Homo sapiens, UniProt P06756+P18564).
T1 construct: purchased R & D systems 3817-AV
Description: human αVβ6 HTRF binding assay. The method, then: All binding assays used the HTRF (homogeneous time resolved fluorescence) technology from Cisbio International, therefore all assays are described as HTRF binding assays. The assay results for the Examples are listed above together with the characterization data. The HTRF binding assays are established for the following integrins: human αVβ6, human αVβ1, human αVβ3, human αVβ5, and human αVβ8. All assays used the following assay buffer: 20 mM Tris, pH 7.4, 1 mM MgCl2, 1 mM MnCl2, 0.01% Tween 20, and 0.01% BSA. Alternatively, a SPA-based assay was used for evaluation of receptor binding.
[…]
For orientation: Time-resolved FRET reads energy transfer from a long-lived donor to a nearby acceptor.

T1 sequence (P06756 31-992 limits assumed): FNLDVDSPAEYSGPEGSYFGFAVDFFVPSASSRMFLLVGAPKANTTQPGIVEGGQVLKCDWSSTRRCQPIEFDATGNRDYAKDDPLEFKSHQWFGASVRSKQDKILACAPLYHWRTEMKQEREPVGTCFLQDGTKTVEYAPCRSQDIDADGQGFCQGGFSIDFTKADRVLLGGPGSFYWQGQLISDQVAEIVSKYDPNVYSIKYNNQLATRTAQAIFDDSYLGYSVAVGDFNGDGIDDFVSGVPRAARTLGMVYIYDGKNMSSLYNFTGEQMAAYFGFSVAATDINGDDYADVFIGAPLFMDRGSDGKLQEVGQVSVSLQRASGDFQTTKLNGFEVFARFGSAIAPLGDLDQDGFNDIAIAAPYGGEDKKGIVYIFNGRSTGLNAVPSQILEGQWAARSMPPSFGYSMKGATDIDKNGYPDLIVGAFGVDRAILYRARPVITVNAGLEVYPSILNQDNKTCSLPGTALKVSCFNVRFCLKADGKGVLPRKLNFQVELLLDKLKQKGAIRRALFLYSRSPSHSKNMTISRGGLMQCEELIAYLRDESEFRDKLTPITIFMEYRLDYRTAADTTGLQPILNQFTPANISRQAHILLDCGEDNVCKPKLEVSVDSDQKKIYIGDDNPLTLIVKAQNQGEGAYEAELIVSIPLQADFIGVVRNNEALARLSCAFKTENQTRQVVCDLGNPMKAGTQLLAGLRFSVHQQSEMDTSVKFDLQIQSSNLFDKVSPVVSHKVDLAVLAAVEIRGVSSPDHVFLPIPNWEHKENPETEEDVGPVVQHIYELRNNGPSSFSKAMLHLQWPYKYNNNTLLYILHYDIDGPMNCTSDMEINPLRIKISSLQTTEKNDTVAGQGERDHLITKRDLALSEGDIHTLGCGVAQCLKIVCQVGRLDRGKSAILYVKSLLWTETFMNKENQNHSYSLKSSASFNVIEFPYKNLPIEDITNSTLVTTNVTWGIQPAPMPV
T1 sequence (P18564 22-707 limits assumed): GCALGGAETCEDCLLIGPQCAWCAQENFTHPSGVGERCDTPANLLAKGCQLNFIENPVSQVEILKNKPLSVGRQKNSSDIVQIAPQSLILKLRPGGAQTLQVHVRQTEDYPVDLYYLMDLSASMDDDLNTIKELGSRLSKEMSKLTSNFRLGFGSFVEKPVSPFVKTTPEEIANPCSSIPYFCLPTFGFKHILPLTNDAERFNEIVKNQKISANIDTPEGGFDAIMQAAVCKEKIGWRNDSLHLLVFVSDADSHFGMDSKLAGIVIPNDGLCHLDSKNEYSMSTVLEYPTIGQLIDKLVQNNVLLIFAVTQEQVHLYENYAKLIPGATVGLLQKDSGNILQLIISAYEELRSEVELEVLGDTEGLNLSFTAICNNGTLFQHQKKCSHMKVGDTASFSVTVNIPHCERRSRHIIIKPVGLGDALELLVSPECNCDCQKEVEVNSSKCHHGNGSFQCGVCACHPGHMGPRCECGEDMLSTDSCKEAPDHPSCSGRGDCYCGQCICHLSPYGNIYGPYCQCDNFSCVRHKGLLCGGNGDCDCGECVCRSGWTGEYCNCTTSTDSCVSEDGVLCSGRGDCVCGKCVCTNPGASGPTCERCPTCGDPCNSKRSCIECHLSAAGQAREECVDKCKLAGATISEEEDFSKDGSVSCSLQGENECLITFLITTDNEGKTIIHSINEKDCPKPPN

By IC50 is commonly meant the concentration needed to halve the response being measured. The low end stands for inhibition by little substance, the high end for a need for much substance. The molecule `CN(C(=O)c1cnn(CCCc2ccc3c(n2)NCCC3)c1)[C@@H](CC(=O)O)c1cc(Cl)cc(Cl)c1` [Example 45] gave an IC50 of 0.018 µM.
As for `COc1ccc([C@H](CC(=O)O)NC(=O)c2cnn(CCc3ccc4c(n3)NCCC4)c2)cn1` [Example 46], the figure is 0.021 µM; as for `O=C(O)CC(NC(=O)c1cnn(CCc2ccc3c(n2)NCCC3)c1CO)c1cc(Cl)cc(Cl)c1` (stereo not shown) [Example 47], 0.022 µM; as for `CN(C(=O)c1cn(CCc2ccc3c(n2)NCCC3)nc1C(F)(F)F)[C@@H](CC(=O)O)c1cc(Cl)cc(Cl)c1` [Example 48], 0.022 µM.
As for `Cc1c(C(=O)NC(CC(=O)O)c2cc(Cl)cc(Cl)c2)cnn1CCc1ccc2c(n1)NCCC2` (stereo not shown) [Example 49], the figure is 0.023 µM; as for `COc1ccc([C@H](CC(=O)O)NC(=O)c2cnn(CCc3ccc4c(n3)NCCC4)c2COC(C)(C)C)cc1F` [Example 50], 0.026 µM.
`CC(C)(C)OCc1c(C(=O)NC(CC(=O)O)c2cccc(Oc3cc(Cl)cc(Cl)c3)c2)cnn1CCc1ccc2c(n1)NCCC2` (stereo not shown) [Example 51] registered an IC50 of 0.028 µM.
As for `Cc1ccc(C(CC(=O)O)NC(=O)c2cnn(CCc3ccc4c(n3)NCCC4)c2CO)cc1C` (stereo not shown) [Example 52], the figure is 0.029 µM.
The figure for `N#Cc1cccc(C(CC(=O)O)NC(=O)c2cnn(CCc3ccc4c(n3)NCCC4)c2CO)c1` (stereo not shown) [Example 53] is 0.03 µM.
`COc1ccc([C@H](CC(=O)O)NC(=O)c2cn(CCc3ccc4c(n3)NCCC4)nc2C)cc1F` [Example 54]: the IC50 was 0.03 µM.
The figure for `Cc1cccc(C(CC(=O)O)NC(=O)c2cnn(CCc3ccc4c(n3)NCCC4)c2CO)c1` (stereo not shown) [Example 55] is 0.032 µM; for `O=C(O)CC(NC(=O)c1cnn(CCc2ccc3c(n2)NCCC3)c1)c1ccc2c(c1)OCO2` (stereo not shown) [Example 56] it is 0.037 µM.
The figure for `Cc1nn(CCc2ccc3c(n2)NCCC3)c(C)c1C(=O)NC(CC(=O)O)c1ccc(Cl)c(Cl)c1` (stereo not shown) [Example 57] is 0.04 µM; for `O=C(O)CC(NC(=O)c1cnn(CCc2ccc3c(n2)NCCC3)c1CO)c1ccc(Cl)c(Cl)c1` (stereo not shown) [Example 58] it is 0.04 µM.
As for `CC(C)(C)OCc1c(C(=O)NC(CC(=O)O)c2cc(Cl)cc(Cl)c2)cnn1CCCc1ccc2c(n1)NCCC2` (stereo not shown) [Example 59], the figure is 0.04 µM; as for `O=C(O)C[C@H](NC(=O)c1cnn(CCCc2ccc3c(n2)NCCC3)c1)c1cc(Cl)cc(Cl)c1` [Example 60], 0.046 µM; as for `CC(C)(C)c1cc(Br)cc([C@H](CC(=O)O)NC(=O)c2cnn(CCCc3ccc4c(n3)NCCC4)c2)c1` [Example 61], 0.049 µM.
Take `O=C(O)CC(NC(=O)c1cnn(CCc2ccc3c(n2)NCCC3)c1CO)c1ccc(C(F)(F)F)cc1` (stereo not shown) [Example 62]: the 50% inhibitory concentration (IC50) was 0.049 µM.
As for `CC(C)(C)c1cc(Br)cc([C@H](CC(=O)O)NC(=O)c2cn(CCc3ccc4c(n3)NCCC4)nc2C(F)(F)F)c1` [Example 63], the figure is 0.056 µM; as for `O=C(O)CC(NC(=O)c1cnn(CCc2ccc3c(n2)NCCC3)c1CO)c1cccc(-n2cccc2)c1` (stereo not shown) [Example 64], 0.064 µM.
Molecule `O=C(O)CC(NC(=O)c1cnn(CCc2ccc3c(n2)NCCC3)c1CO)c1ccc2c(c1)OCO2` (stereo not shown) [Example 65] came in with an IC50 of 0.064 µM.
The figure for `Cc1ccc(C(CC(=O)O)NC(=O)c2cnn(CCc3ccc4c(n3)NCCC4)c2CO)cc1` (stereo not shown) [Example 66] is 0.091 µM; for `O=C(O)CC(NC(=O)c1cnn(CCc2ccc3c(n2)NCCC3)c1CO)c1ccc(Cl)cc1` (stereo not shown) [Example 67] it is 0.095 µM.
As for `O=C(O)CC(NC(=O)c1cnn(CCCc2ccc3c(n2)NCCC3)c1CO)c1cc(Cl)cc(Cl)c1` (stereo not shown) [Example 68], the figure is 0.098 µM; as for `O=C(O)CC(NC(=O)c1cnn(CCc2ccc3c(n2)NCCC3)c1-c1ccccc1)c1cc(Cl)cc(Cl)c1` (stereo not shown) [Example 69], 0.111 µM; as for `Cc1nn(CCc2ccc3c(n2)NCCC3)cc1C(=O)NC(CC(=O)O)c1cc(Cl)cc(Cl)c1` (stereo not shown) [Example 70], 0.112 µM.
As for `O=C(O)CC(NC(=O)c1cnn(CCc2ccc3c(n2)NCCC3)c1CO)c1ccc(F)cc1` (stereo not shown) [Example 71], the figure is 0.12 µM; as for `O=C(O)CC(NC(=O)c1cnn(CCc2ccc3c(n2)NCCC3)c1CO)c1ccccc1` (stereo not shown) [Example 72], 0.124 µM.
`COc1ccc(C(CC(=O)O)NC(=O)c2cnn(CCc3ccc4c(n3)NCCC4)c2CO)cc1` (stereo not shown) [Example 73]: the IC50 stood at 0.124 µM.
The figure for `COc1ccc([C@H](CC(=O)O)NC(=O)c2cnn(CCCc3ccc4c(n3)NCCC4)c2)cc1F` [Example 74] is 0.125 µM.
The figure for `O=C(O)CC(NC(=O)c1cnn(CCc2ccc3c(n2)NCCC3)c1CO)c1cccc(F)c1` (stereo not shown) [Example 75] is 0.13 µM; for `COc1ccc(C(CC(=O)O)NC(=O)c2cnn(CCc3ccc4c(n3)NCCC4)c2CO)cc1OC` (stereo not shown) [Example 76] it is 0.131 µM; for `Cc1nn(CCc2ccc3c(n2)NCCC3)c(C)c1C(=O)NC(CC(=O)O)c1ccc(C(F)(F)F)cc1` (stereo not shown) [Example 77] it is 0.134 µM.
`O=C(O)CC(NC(=O)c1cn(CCc2ccc3c(n2)NCCC3)nc1-c1ccccc1)c1ccc(Cl)c(Cl)c1` (stereo not shown) [Example 78] returned an IC50 of 0.137 µM.
For `O=C(O)CC(NC(=O)c1cnn(CCc2ccc3c(n2)NCCC3)c1CO)c1cc(F)cc(F)c1` (stereo not shown) [Example 80], the IC50 was 0.178 µM.
As for `Cc1cc(C)c(S(=O)(=O)N[C@H](CNC(=O)c2cnn(CCc3cc4c(nc3C)NCCC4)c2)C(=O)O)c(C)c1` [Example 81], the figure is 0.215 µM.
As for `O=C(O)CC(NC(=O)c1cn(CCc2ccc3c(n2)NCCC3)nc1-c1ccccc1)c1cc(Cl)cc(Cl)c1` (stereo not shown) [Example 82], the figure is 0.244 µM; as for `Cc1nn(CCc2ccc3c(n2)NCCC3)c(C)c1C(=O)NC(CC(=O)O)c1cc(Cl)cc(Cl)c1` (stereo not shown) [Example 83], 0.278 µM; as for `CC(C)(C)OCc1nn(CCc2ccc3c(n2)NCCC3)cc1C(=O)NC(CC(=O)O)c1ccc(Cl)c(Cl)c1` (stereo not shown) [Example 84], 0.284 µM.
`O=C(NCC(C(=O)O)c1ccccc1)c1cnn(CCc2ccc3c(n2)NCCC3)c1` (stereo not shown) [Example 85] registered a concentration for half-maximal inhibition (IC50) of 0.321 µM.
The figure for `COc1ccc([C@H](CC(=O)O)NC(=O)c2cnn(CCCc3ccc4c(n3)NCCC4)c2)cn1` [Example 87] is 0.339 µM.
As for `COc1ccc([C@H](CC(=O)O)NC(=O)c2cnn(CCCNC3=NCCN3)c2)cn1` [Example 88], the figure is 0.378 µM.
The figure for `CC(C)CC(CC(=O)O)NC(=O)c1cnn(CCc2ccc3c(n2)NCCC3)c1` (stereo not shown) [Example 89] is 0.399 µM; for `O=C(O)CC(CCc1ccccc1)NC(=O)c1cnn(CCc2ccc3c(n2)NCCC3)c1` (stereo not shown) [Example 90] it is 0.401 µM.
Take `COc1ccc([C@H](CC(=O)O)NC(=O)c2cnn(CCc3ccc4c(n3)NCCC4)c2-c2ccccc2)cc1F` [Example 91]: the IC50 was determined as 0.41 µM.
The figure for `Cc1ccccc1[C@H](CC(=O)O)NC(=O)c1cnn(CCc2ccc3c(n2)NCCC3)c1CO` [Example 92] is 0.416 µM.
The molecule `CN(C(=O)c1cnn(CCc2ccc3c(n2)NCCC3)c1)[C@H](CC(=O)O)c1cc(Cl)cc(Cl)c1` [Example 93] had an IC50 of 0.446 µM.
As for `COc1ccc([C@H](CC(=O)O)NC(=O)c2cnn(CCCNc3ccccn3)c2)cn1` [Example 94], the figure is 0.592 µM; as for `CC(C)(C)OCc1nn(CCc2ccc3c(n2)NCCC3)cc1C(=O)NC(CC(=O)O)c1ccc(C(F)(F)F)cc1` (stereo not shown) [Example 95], 1.05 µM.
`COC(=O)C[C@H](NC(=O)c1cnn(CCc2ccc3c(n2)NCCC3)c1)c1cc(Br)cc(C(C)(C)C)c1` [Example 96] came in with an IC50 of 1.1 µM.
As for `O=C(O)C[C@H](NC(=O)c1cnn(Cc2ccc3c(n2)NCCC3)c1)c1cc(Cl)cc(Cl)c1` [Example 97], the figure is 1.17 µM; as for `CC(C)(C)c1cc(Br)cc([C@H](CC(=O)O)NC(=O)c2cnn(Cc3ccc4c(n3)NCCC4)c2)c1` [Example 98], 1.41 µM; as for `O=C(O)CC(Cc1ccccc1)NC(=O)c1cnn(CCc2ccc3c(n2)NCCC3)c1` (stereo not shown) [Example 99], 1.42 µM.
The molecule `Cc1nc2c(cc1Cn1cc(C(=O)NC(CC(=O)O)c3cc(Cl)cc(Cl)c3)c(C)n1)CCCN2` (stereo not shown) [Example 100] registered an IC50 of 1.46 µM.
The figure for `CCOC(=O)C[C@H](NC(=O)c1cnn(CCc2ccc3c(n2)NCCC3)c1)c1cc(Cl)cc(Cl)c1` [Example 101] is 1.46 µM; for `COc1ccc([C@H](CC(=O)O)NC(=O)c2cnn(Cc3ccc4c(n3)NCCC4)c2)cn1` [Example 102] it is 1.98 µM.
As for `O=C(O)CC(NC(=O)c1cnn(CCc2ccc3c(n2)NCCC3)c1CO)c1ccccc1Cl` (stereo not shown) [Example 103], the figure is 2.6 µM; as for `CCN(C(=O)c1cnn(CCc2ccc3c(n2)NCCC3)c1)C(CC(C)=O)c1cc(Cl)cc(Cl)c1` (stereo not shown) [Example 104], 3.81 µM.
The figure for `Cc1nc2c(cc1Cn1cc(C(=O)NC(CC(=O)O)c3cc(Cl)cc(Cl)c3)c(CO)n1)CCCN2` (stereo not shown) [Example 105] is 3.93 µM; for `CCOC(=O)C[C@H](NC(=O)c1cnn(CCc2ccc3c(n2)NCCC3)c1)c1cc(Br)cc(C(C)(C)C)c1` [Example 106] it is 4.31 µM.
Molecule `Cc1nc2c(cc1CCn1ncc(C(=O)NC(CC(=O)O)c3cc(Cl)cc(Cl)c3)c1CO)CCCN2` (stereo not shown) [Example 107] displayed an IC50 of 5 µM.
